The supplement of paper PMC11208160

Assay: recombinant UMI read abundance after kanamycin selection (control-corrected) (log10(CPM+1)); higher = more efficient recombination; extreme values may be limits of the assay; sequences stand for … in AGTGCAGAGAAAATCGGCCAGTTTTCTCTGCCTGCAGTCCGCATGCCGTGGGACCCCTTGGGTTCTAACCTGTTGCCTAGATTTATGCAGCGGACTGCCTTTCTCCCAAAGTGATAAACCGG…AGGTTGGTTTCACT; site = the 11-nt donor
Method in brief: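 Reported values are log10(CPM+1) from a pooled Escherichia coli screen of donor and donor-binding-loop pairs for the IS621 bridge recombinase. Selection used IPTG (0.07 mM) plus kanamycin, against unselected plating, each in two replicates. Recombinant UMIs were amplified across the donor–target junction, sequenced, converted to CPM, averaged over replicates and scaled by control-derived factors.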
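Also: IS621 bridge recombinase in Escherichia coli cells against a fixed T5 target plasmid.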

Sequence	recombinant UMI read abundance (log10)
TTGGCGGCATGGACCGGTTTTCCCGGTAATCCGTATTTGCT (site TTCGCGGCTAG)	0
TTGGCGGCATGGACCGGTTTTCCCGGTAATCCGTATTTGCT (site TTGGCGGCTAG)	1.44
TTGGCGGCATGGACCGGTTTTCCCGGTAATCCGTATTTGCT (site TTTGCGGCTAG)	0.00953
TTGGGTGCATGGACCGGTTTTCCCGGTAATCCGTATTTGAT (site TTGGGTGCTAT)	1.6
TTGGTTTCATGGACCGGTTTTCCCGGTAATCCGTATTTGTT (site TTGGTTTCTAA)	0.417
TTGTAGACATGGACCGGTTTTCCCGGTAATCCGTATTTGCA (site TTGTAGACTTG)	1.87
TTGTCTACATGGACCGGTTTTCCCGGTAATCCGTATTTGCG (site TTGTCTACTCG)	0.0108
TTGTGACCATGGACCGGTTTTCCCGGTAATCCGTATTTGAT (site TTGTGACCTAT)	0.00587
TTGTGAGCATGGACCGGTTTTCCCGGTAATCCGTATTTGGT (site TTGTGAGCTAC)	0.701
TTGTTCCCATGGACCGGTTTTCCCGGTAATCCGTATTTGTG (site TTGTTCCCTCA)	0.187
TTTAATTCATGGACCGGTTTTCCCGGTAATCCGTATTTGCA (site TTTAATTCTTG)	0
TTTAATTCATGGACCGGTTTTCCCGGTAATCCGTATTTGGG (site TTTAATTCTCC)	1.33
TTTATTACATGGACCGGTTTTCCCGGTAATCCGTATTTGGT (site TTTATTACTAC)	0.0132
TTTATTCCATGGACCGGTTTTCCCGGTAATCCGTATTTGAC (site TTTATTCCTGT)	0
TTTCAGACATGGACCGGTTTTCCCGGTAATCCGTATTTGTT (site TTTCAGACTAA)	0.004
TTTCCAACATGGACCGGTTTTCCCGGTAATCCGTATTTGAA (site TTTCCAACTTT)	0.0166

Sequence	recombinant UMI read abundance (log10)
TTTCCCGCATGGACCGGTTTTCCCGGTAATCCGTATTTGTC (site TTTCCCGCTGA)	1.42
TTTCCGGCATGGACCGGTTTTCCCGGTAATCCGTATTTGCT (site TTTACGGCTAG)	0.0335
TTTCCGGCATGGACCGGTTTTCCCGGTAATCCGTATTTGCT (site TTTCCGGCTAG)	0.016
TTTCCGGCATGGACCGGTTTTCCCGGTAATCCGTATTTGCT (site TTTGCGGCTAG)	0.00591
TTTCCGGCATGGACCGGTTTTCCCGGTAATCCGTATTTGCT (site TTTTCGGCTAG)	0.0123
TTTCTAGCATGGACCGGTTTTCCCGGTAATCCGTATTTGAC (site TTTCTAGCTGT)	0.582
TTTCTGTCATGGACCGGTTTTCCCGGTAATCCGTATTTGAA (site TTTCTGTCTTT)	0.0118
TTTGCCTCATGGACCGGTTTTCCCGGTAATCCGTATTTGCC (site TTTGCCTCTGG)	1.48
TTTGCGGCATGGACCGGTTTTCCCGGTAATCCGTATTTGAT (site TTTGCGGCTAA)	0.015
TTTGCGGCATGGACCGGTTTTCCCGGTAATCCGTATTTGAT (site TTTGCGGCTAC)	0.00828
TTTGCGGCATGGACCGGTTTTCCCGGTAATCCGTATTTGAT (site TTTGCGGCTAG)	0
TTTGCGGCATGGACCGGTTTTCCCGGTAATCCGTATTTGAT (site TTTGCGGCTAT)	0.414
TTTGCGGCATGGACCGGTTTTCCCGGTAATCCGTATTTGCT (site ATTGCGGCTAG)	0.00696
TTTGCGGCATGGACCGGTTTTCCCGGTAATCCGTATTTGCT (site CTTGCGGCTAG)	0.00458
TTTGCGGCATGGACCGGTTTTCCCGGTAATCCGTATTTGCT (site GTTGCGGCTAG)	0.00615
TTTGCGGCATGGACCGGTTTTCCCGGTAATCCGTATTTGCT (site TATGCGGCTAG)	0.00481
